Test [1] concerns the target T1, Alpha-1A adrenergic receptor (Homo sapiens, UniProt P35348).
T1 sequence (P35348 whole entry): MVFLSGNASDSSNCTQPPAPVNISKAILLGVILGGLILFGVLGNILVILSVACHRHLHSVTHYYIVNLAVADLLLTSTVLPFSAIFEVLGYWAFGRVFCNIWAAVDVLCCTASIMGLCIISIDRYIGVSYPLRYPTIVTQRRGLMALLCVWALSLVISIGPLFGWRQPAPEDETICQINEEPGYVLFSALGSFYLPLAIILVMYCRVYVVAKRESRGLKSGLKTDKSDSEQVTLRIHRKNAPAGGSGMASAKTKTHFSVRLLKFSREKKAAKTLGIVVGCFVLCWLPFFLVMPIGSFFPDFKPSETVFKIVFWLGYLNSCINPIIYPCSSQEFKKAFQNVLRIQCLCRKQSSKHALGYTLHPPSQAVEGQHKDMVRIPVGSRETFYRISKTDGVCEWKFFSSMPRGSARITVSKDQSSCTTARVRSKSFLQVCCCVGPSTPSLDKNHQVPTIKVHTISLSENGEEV
Format: functional, cell-based.

In another test the target is Melanocortin receptor 4 (Homo sapiens, UniProt P32245).
Melanocortin receptor 4, sequence (P32245 whole entry): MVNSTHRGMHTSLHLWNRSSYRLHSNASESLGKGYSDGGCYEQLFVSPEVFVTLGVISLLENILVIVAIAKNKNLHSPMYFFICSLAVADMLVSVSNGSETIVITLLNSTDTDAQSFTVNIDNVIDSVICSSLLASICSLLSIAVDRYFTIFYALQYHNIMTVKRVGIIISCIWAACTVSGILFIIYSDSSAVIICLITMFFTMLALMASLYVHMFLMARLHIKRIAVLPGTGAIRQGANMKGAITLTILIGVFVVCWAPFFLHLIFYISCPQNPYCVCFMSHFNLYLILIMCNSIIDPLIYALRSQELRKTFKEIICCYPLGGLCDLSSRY
The target of test [2] is Muscarinic acetylcholine receptor M3 (Homo sapiens, UniProt P20309).
Muscarinic acetylcholine receptor M3, sequence (P20309 whole entry): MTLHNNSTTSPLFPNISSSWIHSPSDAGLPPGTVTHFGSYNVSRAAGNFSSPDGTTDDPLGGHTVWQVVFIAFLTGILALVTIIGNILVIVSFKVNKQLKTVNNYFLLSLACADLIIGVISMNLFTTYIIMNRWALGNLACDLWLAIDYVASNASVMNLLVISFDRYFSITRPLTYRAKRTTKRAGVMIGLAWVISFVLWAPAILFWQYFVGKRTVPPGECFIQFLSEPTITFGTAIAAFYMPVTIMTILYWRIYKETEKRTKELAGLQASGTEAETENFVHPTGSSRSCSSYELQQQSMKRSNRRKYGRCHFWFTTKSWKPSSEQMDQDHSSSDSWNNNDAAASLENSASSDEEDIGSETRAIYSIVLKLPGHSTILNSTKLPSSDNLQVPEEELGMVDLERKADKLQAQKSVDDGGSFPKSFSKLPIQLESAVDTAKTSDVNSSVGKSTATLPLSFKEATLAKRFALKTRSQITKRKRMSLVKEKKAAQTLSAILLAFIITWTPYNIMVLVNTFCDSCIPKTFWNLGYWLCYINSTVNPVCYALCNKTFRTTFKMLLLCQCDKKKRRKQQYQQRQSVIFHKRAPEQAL
Test [3] concerns the target T2, Alpha-2B adrenergic receptor (Homo sapiens, UniProt P18089).
T2 sequence (P18089 whole entry): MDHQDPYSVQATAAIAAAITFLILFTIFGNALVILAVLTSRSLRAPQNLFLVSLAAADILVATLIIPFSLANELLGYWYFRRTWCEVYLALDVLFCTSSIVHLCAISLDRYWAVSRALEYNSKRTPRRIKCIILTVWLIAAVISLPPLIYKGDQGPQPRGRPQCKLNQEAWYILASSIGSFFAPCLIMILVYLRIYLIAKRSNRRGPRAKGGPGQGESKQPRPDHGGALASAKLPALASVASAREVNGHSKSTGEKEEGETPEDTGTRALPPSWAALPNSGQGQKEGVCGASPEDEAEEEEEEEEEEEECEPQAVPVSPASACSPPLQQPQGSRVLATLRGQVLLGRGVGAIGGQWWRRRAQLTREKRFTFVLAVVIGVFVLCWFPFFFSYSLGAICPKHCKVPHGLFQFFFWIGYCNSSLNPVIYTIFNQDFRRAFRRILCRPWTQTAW

For a further test, the target named is T3, Estrogen receptor (Homo sapiens, UniProt P03372).
T3 sequence (P03372 whole entry): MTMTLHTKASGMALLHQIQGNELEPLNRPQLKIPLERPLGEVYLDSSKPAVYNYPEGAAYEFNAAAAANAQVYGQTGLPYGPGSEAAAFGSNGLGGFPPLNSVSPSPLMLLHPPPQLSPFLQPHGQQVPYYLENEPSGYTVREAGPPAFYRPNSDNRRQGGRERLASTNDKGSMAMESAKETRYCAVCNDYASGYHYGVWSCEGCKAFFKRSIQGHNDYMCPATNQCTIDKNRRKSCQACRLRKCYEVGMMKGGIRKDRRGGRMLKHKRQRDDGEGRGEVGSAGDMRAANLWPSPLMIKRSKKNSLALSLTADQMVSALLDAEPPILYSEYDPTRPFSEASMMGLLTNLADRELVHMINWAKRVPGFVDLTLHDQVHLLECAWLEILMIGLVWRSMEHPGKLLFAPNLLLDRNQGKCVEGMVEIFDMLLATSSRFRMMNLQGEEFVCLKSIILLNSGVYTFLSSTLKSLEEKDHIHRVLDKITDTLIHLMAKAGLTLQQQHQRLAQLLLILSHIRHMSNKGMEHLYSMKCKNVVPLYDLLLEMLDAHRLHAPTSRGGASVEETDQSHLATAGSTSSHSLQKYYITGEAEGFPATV

Test [4] deals with T1, Alpha-1A adrenergic receptor.
Test [5] has as its target Beta-2 adrenergic receptor (Homo sapiens, UniProt P07550). Format: functional, cell-based.
For test [6], the target named is 5-hydroxytryptamine receptor 2A (Homo sapiens, UniProt P28223). Format: functional, cell-based.
5-hydroxytryptamine receptor 2A, sequence (P28223 whole entry): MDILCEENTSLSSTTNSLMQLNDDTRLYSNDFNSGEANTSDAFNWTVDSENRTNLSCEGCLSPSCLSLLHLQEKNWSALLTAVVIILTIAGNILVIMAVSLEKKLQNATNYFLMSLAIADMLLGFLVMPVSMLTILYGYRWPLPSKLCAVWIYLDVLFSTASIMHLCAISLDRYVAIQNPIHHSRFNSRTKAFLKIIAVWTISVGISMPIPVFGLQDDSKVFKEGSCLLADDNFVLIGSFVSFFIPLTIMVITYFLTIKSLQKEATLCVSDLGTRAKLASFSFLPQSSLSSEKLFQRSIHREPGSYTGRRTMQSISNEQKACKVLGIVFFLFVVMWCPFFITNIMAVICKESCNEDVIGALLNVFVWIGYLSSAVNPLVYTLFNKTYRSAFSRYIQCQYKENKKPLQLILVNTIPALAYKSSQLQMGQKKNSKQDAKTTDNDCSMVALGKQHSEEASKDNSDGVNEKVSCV
A further test has as its target Cannabinoid receptor 1 (Homo sapiens, UniProt P21554). Format: functional, cell-based.

Broadly, the AC50 is the midpoint of the concentration-response curve, whichever way the signal moves. A higher AC50 goes with activity only at high concentration.

The structures appear in SMILES notation. Some results are limits rather than exact numbers.
Further: assay procedure not described here.

Cannabinoid receptor 1, sequence (P21554 whole entry): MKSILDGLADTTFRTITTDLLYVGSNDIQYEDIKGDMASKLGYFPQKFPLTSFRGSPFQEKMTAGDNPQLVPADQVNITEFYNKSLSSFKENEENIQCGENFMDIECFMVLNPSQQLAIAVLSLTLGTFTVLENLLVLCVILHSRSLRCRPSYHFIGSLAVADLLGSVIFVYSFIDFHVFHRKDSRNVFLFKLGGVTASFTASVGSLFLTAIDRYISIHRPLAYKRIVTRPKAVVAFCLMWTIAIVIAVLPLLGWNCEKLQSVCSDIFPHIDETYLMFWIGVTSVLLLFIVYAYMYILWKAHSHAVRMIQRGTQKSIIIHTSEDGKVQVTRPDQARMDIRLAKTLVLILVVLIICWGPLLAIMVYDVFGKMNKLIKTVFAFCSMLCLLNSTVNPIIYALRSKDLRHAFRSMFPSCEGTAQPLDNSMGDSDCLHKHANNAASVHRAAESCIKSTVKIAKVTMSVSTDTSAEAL
Beta-2 adrenergic receptor, sequence (P07550 whole entry): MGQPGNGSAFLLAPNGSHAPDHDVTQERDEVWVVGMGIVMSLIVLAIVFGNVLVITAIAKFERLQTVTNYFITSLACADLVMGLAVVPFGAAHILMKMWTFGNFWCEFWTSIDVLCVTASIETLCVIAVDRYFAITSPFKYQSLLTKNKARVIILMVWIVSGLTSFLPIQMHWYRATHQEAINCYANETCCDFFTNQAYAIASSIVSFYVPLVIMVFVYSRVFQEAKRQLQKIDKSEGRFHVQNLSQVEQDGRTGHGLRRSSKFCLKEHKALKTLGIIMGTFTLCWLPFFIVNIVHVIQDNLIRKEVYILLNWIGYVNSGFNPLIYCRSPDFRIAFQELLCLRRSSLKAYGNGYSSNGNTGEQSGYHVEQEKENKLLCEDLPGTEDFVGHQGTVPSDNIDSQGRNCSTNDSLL

Regarding `CC(=O)c1ccc(S(=O)(=O)NC(=O)NC2CCCCC2)cc1` [ACETOHEXAMIDE], the AC50 in [1] was above 30 µM; on Melanocortin receptor 4 it was above 10 µM; in test [2], above 30 µM; in test [3] it was above 10 µM; on Estrogen receptor, above 10 µM; in test [4], above 10 µM. For the same compound, the AC50 (in [5]; in [6]; on Cannabinoid receptor 1) was above 30 µM throughout.
